≈ marks a conversion by molar mass, not a printed value.
Tests used:
[1] = test system: Bacillus brevis ATCC8246; format: cell-based; design: key: ++: inhibition; +: weak inhibition; −: no inhibition
[2] = test system: Bacillus subtilis 168; test: Agar bioassay, growth suppression seen as clear zone; format: cell-based; design: key: ++: inhibition; +: weak inhibition; −: no inhibition; settings: indicator strain Bacillus subtilis 168
[3] = test system: Bacillus cereus ATCC14579; format: cell-based; design: key: ++: inhibition; +: weak inhibition; −: no inhibition
[4] = test system: Bacillus licheniformis ATCC9789; format: cell-based; design: key: ++: inhibition; +: weak inhibition; −: no inhibition
[5] = test system: Micrococcus luteus; format: cell-based; design: key: ++: inhibition; +: weak inhibition; −: no inhibition
[6] = test system: Bacillus pumilus; format: cell-based; design: key: ++: inhibition; +: weak inhibition; −: no inhibition
[7] = test system: Bacillus subtilis CU1065; test: Agar bioassay, growth suppression seen as clear zone; format: cell-based; design: key: ++: inhibition; +: weak inhibition; −: no inhibition; settings: indicator strain Bacillus subtilis CU1065
[8] = test system: Bacillus subtilis HB0042; test: as above; format: cell-based; design: key: ++: inhibition; +: weak inhibition; −: no inhibition; settings: indicator strain Bacillus subtilis HB0042
[9] = test system: Bacillus sphaericus; format: cell-based; design: key: ++: inhibition; +: weak inhibition; −: no inhibition
[10] = test system: Paenibacillus polymyxa; format: cell-based; design: key: ++: inhibition; +: weak inhibition; −: no inhibition
[11] = test system: Paenibacillus granivorans; format: cell-based; design: key: ++: inhibition; +: weak inhibition; −: no inhibition
[12] = test system: Bacillus megaterium 7A1; format: cell-based; design: key: ++: inhibition; +: weak inhibition; −: no inhibition
[13] = test system: Arthrobacter sp.; format: cell-based; design: key: ++: inhibition; +: weak inhibition; −: no inhibition
[14] = test system: Staphylococcus aureus; test: Agar bioassay, growth suppression seen as clear zone; format: cell-based; design: key: ++: inhibition; +: weak inhibition; −: no inhibition; settings: indicator strain Staphylococcus aureus
[15] = test system: E. coli K12; test: as above; format: cell-based; design: key: ++: inhibition; +: weak inhibition; −: no inhibition; settings: indicator strain E. coli K12
[16] = test system: Klebsiella terrigena; test: as above; format: cell-based; design: key: ++: inhibition; +: weak inhibition; −: no inhibition; settings: indicator strain Klebsiella terrigena
[17] = test system: Pseudomonas sp.; test: as above; format: cell-based; design: key: ++: inhibition; +: weak inhibition; −: no inhibition; settings: indicator strain Pseudomonas sp.
[18] = test system: Erwinia caratovora; format: cell-based; design: key: ++: inhibition; +: weak inhibition; −: no inhibition
[19] = test system: B. anthracis strain Sterne; format: cell-based, Bacillus anthracis
[20] = test system: Streptococcus pyogenes; format: cell-based
[21] = test system: Listeria monocytogenes; format: cell-based
[22] = test system: Enterococcus faecalis st. U503 [VRE]; format: cell-based
[23] = test system: Staphylococcus aureus st. NRS384/USA300 [MRSA]; format: cell-based
[24] = test system: B. amylo. FZB42; format: cell-based, Bacillus amyloliquefaciens
[25] = test system: B. pumilus ATCC 7061; format: cell-based, Bacillus pumilus
[26] = test system: B. amylo. (NRRL B-14393); format: cell-based, Bacillus amyloliquefaciens
[27] = test system: any other tested bacterium; format: cell-based
[28] = test system: B. anthracis strain Sterne; format: cell-based, Bacillus anthracis; remark: listed apart in the source
[29] = test system: B. anthracis; format: cell-based, Bacillus anthracis

Question: With CC[C@H](C)[C@H](NC(=O)c1nc(-c2nc(-c3csc(-c4nc(-c5csc(C(CCCN=C(N)N)N(C)C)n5)oc4C)n3)oc2C)oc1C)C(=O)N[C@H](c1nc(-c2nc(-c3nc(-c4nc(C5=NC(C(=O)N[C@@H](Cc6ccccc6)C(=O)O)C(C)O5)co4)co3)co2)co1)[C@@H](C)CC (stereo partly drawn) [PZN, plantazolicin] as the compound, how does the “Degree of inhibition in a bioassay” value [1] read?
Answer: The value was “+”.

Question: And the “Degree of inhibition in a bioassay” value [2]?
Answer: The value was “+”.

Question: What about the “Degree of inhibition in a bioassay” value [3] of the same compound?
Answer: The value was “+”.

Question: What about the “Degree of inhibition in a bioassay” value [4] of the same compound?
Answer: The value was “+”.

Question: What about the “Degree of inhibition in a bioassay” value [5] of the same compound?
Answer: The value was “+”.

Question: What about the “Degree of inhibition in a bioassay” value [6] of the same compound?
Answer: Its value is “−”.

Question: And the “Degree of inhibition in a bioassay” value [7]?
Answer: Its value is “+”.

Question: What about the “Degree of inhibition in a bioassay” value [8] of the same compound?
Answer: The value was “++”.

Question: And the “Degree of inhibition in a bioassay” value [9]?
Answer: Its value is “+”.

Question: And the “Degree of inhibition in a bioassay” value [10]?
Answer: Its value is “−”.

Question: And the “Degree of inhibition in a bioassay” value [11]?
Answer: The value was “+”.

Question: And the “Degree of inhibition in a bioassay” value [12]?
Answer: The value was “++”.

Question: And the “Degree of inhibition in a bioassay” value [13]?
Answer: Its value is “−”.

Question: And the “Degree of inhibition in a bioassay” value [14]?
Answer: Its value is “−”.

Question: What about the “Degree of inhibition in a bioassay” value [15] of the same compound?
Answer: The value was “−”.

Question: What about the “Degree of inhibition in a bioassay” value [16] of the same compound?
Answer: Its value is “−”.

Question: And the “Degree of inhibition in a bioassay” value [17]?
Answer: Its value is “−”.

Question: What about the “Degree of inhibition in a bioassay” value [18] of the same compound?
Answer: Its value is “−”.

Question: And the “Growth inhibition / activity against B. anthracis in microbroth dilution bioassay” value [19]?
Answer: Its value is “potent growth inhibition”.

Question: And the MIC99 [19]?
Answer: Its MIC99 is 4 µg/mL (≈ 2.99 µM).

Question: And the “Growth inhibition in microbroth dilution bioassay” value [20]?
Answer: The value was “only inhibited by very high concentrations”.

Question: And the “Growth inhibition in microbroth dilution bioassay” value [21]?
Answer: Its value is “unaffected”.

Question: What about the “Growth inhibition in microbroth dilution bioassay” value [22] of the same compound?
Answer: The value was “unaffected”.

Question: What about the “Growth inhibition in microbroth dilution bioassay” value [23] of the same compound?
Answer: The value was “unaffected”.

Question: And the “Susceptibility to the action of PZN” value [24]?
Answer: The value was “no observable inhibition”.

Question: And the “Susceptibility to the action of PZN” value [25]?
Answer: The value was “no observable inhibition”.

Question: And the “Susceptibility to the action of PZN” value [26]?
Answer: The value was “completely resistant”.

Question: And the “Inhibition zones in agar diffusion bioassay” value [27]?
Answer: The value was “inhibition zones were not observed”.

Question: What about the “Mode of action (bactericidal) on reculturing of treated cells in the absence of PZN” value [28] of the same compound?
Answer: The value was “bactericidal”.

Question: What about the “Cell morphology by DIC microscopy” value [29] of the same compound?
Answer: Its value is “massive lysis”.

Source: US20140228278A1, “ANTIBIOTICS AND METHODS FOR MANUFACTURING THE SAME” (priority 2011, published 2014)
